Test results published in US10034886B2, “GLP-1 receptor modulators” (Celgene International II SÀRL, priority 2014, dated 2018).
Like-named read-outs stand apart in the source and are kept apart here.

Biological target: T1, GLP-1R (Homo sapiens, UniProt P43220)
T1 construct: host or cells: GLP-1R CRE-bla CHO-K1 cells
Assay: EC20 GLP-1(9-36) PAM cAMP assay: dose response of compound in the presence of fixed concentration of GLP-1(9-36)
Type: cell-based
Details: GLP-1R CRE-bla CHO-K1 cells, read-out: EC20 GLP-1(9-36) PAM EC50
Summary of the method: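 GLP-1R CRE-bla CHO-K1 cells treated 30 min at 37 °C with 12-point compound dose response plus fixed EC20 GLP-1(9-36), with IBMX, in HBSS/HEPES/0.1% BSA pH 7.4. Total cAMP measured by luminescent detection against standard curve; EC50 and Emax from non-linear regression.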

[1] = dose response of compound in presence of fixed concentration of GLP-1(9-36)
[2] = compound dose response with fixed concentration of GLP-1(9-36)

T1 sequence (P43220 24-463): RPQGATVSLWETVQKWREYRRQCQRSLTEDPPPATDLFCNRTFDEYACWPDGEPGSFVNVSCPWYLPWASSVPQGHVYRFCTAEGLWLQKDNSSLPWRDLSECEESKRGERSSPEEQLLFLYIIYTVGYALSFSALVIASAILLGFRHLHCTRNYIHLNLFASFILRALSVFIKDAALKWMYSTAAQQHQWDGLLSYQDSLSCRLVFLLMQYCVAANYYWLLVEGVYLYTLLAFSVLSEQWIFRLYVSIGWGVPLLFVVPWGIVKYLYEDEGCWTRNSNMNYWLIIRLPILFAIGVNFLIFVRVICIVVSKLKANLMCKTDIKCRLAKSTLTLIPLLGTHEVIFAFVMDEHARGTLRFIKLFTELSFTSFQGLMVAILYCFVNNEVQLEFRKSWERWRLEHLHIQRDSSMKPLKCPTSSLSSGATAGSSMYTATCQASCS
T1 sequence (P01275 100-127 partner limits assumed): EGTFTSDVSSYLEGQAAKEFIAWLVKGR

Row | Structure (SMILES) | EC50 [1] [nM] | EC50 [2] [nM]
1 | CCCCCCCOc1ccc(-c2cnc(-c3ccc(C[C@H](NC(=O)c4cc5c(s4)CCC(C)C5)C(=O)N[C@H](C)C(=O)O)cc3)nc2)cc1 (stereo partly drawn) [Compound 814] | 800 to 2500 | –
2 | CCC(CC)Oc1ccc(-c2cnc(-c3ccc(C[C@H](NC(=O)c4ccc(C(C)(C)C)s4)C(=O)NC(C(=O)O)C(O)c4ccccc4)cc3)nc2)cc1 (stereo partly drawn) [Compound 935] | 2500 to 5000 | –
3 | CCCCCCCOc1ccc(-c2cnc(-c3ccc(C[C@H](NC(=O)c4ccc(C(C)(C)C)s4)C(=O)N[C@H]4C[C@@H](C(=O)O)C4)cc3)nc2)cc1 [Compound 872] | 800 to 2500 | –
4 | CCCCCCCOc1ccc(-c2cnc(-c3ccc(C[C@H](NC(=O)c4ccc(C(C)(C)C)cc4)C(=O)NCCC(=O)O)cc3)nc2)cc1C#N [Compound 700] | 5000 to 10000 | –
5 | CCCCCCCOc1ccc(-c2cnc(-c3ccc(C[C@H](NC(=O)c4ccc(C(C)(C)C)s4)C(=O)NC)cc3)nc2)cc1 [Compound 383] | 2500 to 5000 | –
6 | CCCCCCCOc1ccc(-c2cnc(-c3ccc(C[C@H](NC(=O)c4ccc(C(C)(C)C)s4)C(=O)N[C@H](C(=O)O)[C@H](C)CC)cc3)nc2)cc1 [Compound 657] | 800 to 2500 | –
7 | CC(C)(C)c1ccc(C(=O)N[C@@H](Cc2ccc(-c3ncc(-c4ccc(-c5ccc(C#N)cc5)cc4F)cn3)cc2)C(=O)N2CC(C(=O)O)C2)s1 [Compound 1201] | < 800 | –
8 | CCCCCCCOc1ccc(-c2cnc(-c3ccc(C[C@H](NC(=O)c4ccc(C(C)C)cc4)C(=O)NCCC(=O)O)cc3)nc2)cc1 [Compound 446] | 800 to 2500 | –
9 | CCCCCCCOc1ccc(-c2cnc(-c3ccc(C[C@H](NC(=O)c4ccc(C(C)(C)C)s4)C(=O)NC4(C(=O)O)CCCC4)cc3)nc2)cc1 [Compound 395] | 800 to 2500 | –
10 | CCC[C@H]1CC[C@H](C2CCN(c3cnc(-c4ccc(C[C@H](NC(=O)c5ccc(C(C)(C)C)s5)C(=O)NC(C)(C)C(=O)O)cc4)nc3)CC2)CC1 [Compound 1466] | – | < 800
11 | CCCCCCCOc1ccc(-c2cnc(-c3ccc(C[C@H](NC(=O)c4ccc(C(C)(C)C)s4)C(=O)N[C@@H](CC(=O)NCC(N)=O)C(=O)O)cc3)nc2)cc1 [Compound 518] | 800 to 2500 | –
12 | CCCCCCCOc1ccc(-c2cnc(-c3ccc(C[C@H](NC(=O)c4ccc(C(C)(C)C)s4)C(=O)N4CC(C(=O)O)CC4C)cc3)nc2)cc1 (stereo partly drawn) [Compound 892] | < 800 | –
13 | C[C@@H](NC(=O)[C@H](Cc1ccc(-c2ncc(OCc3ccc(C(F)(F)F)cc3)cn2)cc1)NC(=O)c1ccc(C(C)(C)C)s1)C(=O)O [Compound 1272] | – | 5000 to 10000
14 | CC[C@H]1CC[C@H](c2ccc(-c3cnc(-c4ccc(C[C@H](NC(=O)c5ccc(C(C)(C)C)s5)C(=O)N[C@H](Cc5c[nH]cn5)C(=O)O)cc4)nc3)cc2)CC1 [Compound 1322] | – | < 800
15 | CC(C)CCSc1ccc(-c2cnc(-c3ccc(C[C@H](NC(=O)c4ccc(C(C)(C)C)cc4)C(=O)NCCC(=O)O)cc3)nc2)cc1 [Compound 681] | 5000 to 10000 | –
16 | CCCCCCCOc1ccc(-c2cnc(-c3ccc(C[C@H](NC(=O)c4ccc(C(C)(C)C)cc4)C(=O)NC(C(=O)O)c4cccc(OC)c4)cc3)nc2)cc1 (stereo partly drawn) [Compound 566] | < 800 | –
17 | CCCCCCCOc1ccc(-c2cnc(-c3ccc(C[C@H](NC(=O)/C=C/c4ccc(OC)cc4)C(=O)N[C@H](C)C(=O)O)cc3)nc2)cc1 [Compound 1047] | 2500 to 5000 | –
18 | CC(C)(C)c1ccc(C(=O)N[C@@H](Cc2ccc(-c3ncc(-c4ccc(OC5CCCC5)cc4)cn3)cc2)C(=O)N2CC(C(=O)O)C2)s1 [Compound 779] | 800 to 2500 | –
19 | CC(C)(C)c1ccc(C(=O)N[C@@H](Cc2ccc(-c3ncc(-c4ccc(OCCC5CCCC5)cc4)cn3)cc2)C(=O)N2CC(C(=O)O)C2)s1 [Compound 920] | 800 to 2500 | –
20 | CCCCCCCOc1ccc(-c2cnc(-c3ccc(C[C@H](NC(=O)c4ccc(C(C)(C)C)cc4)C(=O)N[C@H](CN)C(=O)O)cc3)nc2)cc1 [Compound 465] | 800 to 2500 | –
21 | CCC(C)(C)c1ccc(C(=O)N[C@@H](Cc2ccc(-c3ncc(-c4ccc([C@H]5CC[C@H](CC)CC5)cc4)cn3)cc2)C(=O)O)cc1 [Compound 1375] | – | 800 to 2500
